Measured values reported in US20100331239A1, “CD14 AND PEPTIDES THEREOF FOR PROTECTION OF CELLS AGAINST CELL DEATH” (THE MEDICAL RESEARCH, INFRASTRUCTURE AND HEALTH SERVICES, priority 2008, published 2010).

What was measured:
[1] = system: intracellular expression of MO2 in lymphocytes; experiment: Blocking of monocyte secretion of CD14 in vitro; intracellular MO2 staining in lymphocytes; assay type: cell-based; settings: cell secretion blocked; staining with anti MO2 antibodies
Source text: Further support for the concept that lymphocytes are capable of MO2 uptake is found in another experiment in which monocyte secretion of CD14 in vitro was blocked with Brefeldin A (a drug blocking the Golgi system thus inhibiting cell secretion).

[2] = system: CD3 positive and CD3 negative cells; experiment: Intracellular binding / penetration of pMO2-biotin into mononuclear cells (streptavidin-APC, FACS); assay type: cell-based, human
Experimental: The cells were incubated for 3 hours with pMO2-biotin or DMSO (the peptide diluent) as a control. In order to visualize the biotin-labeled pMO2, the cells were washed and stained with anti-CD3 antibodies and fluorescent streptavidin (streptavidin-APC), with or without prior fixation and permeabilization.

[3] = system: human lymphocytes and human CD3 positive lymphocytes; experiment: Gliotoxin- or PMA-induced apoptosis of human mononuclear cells cultured overnight; FACS readout by DiOC6(3), 7AAD or cell size; assay type: cell-based; settings: for protection of lymphocytes from gliotoxin-induced apoptosis: CD3+ cultures, DioC6(3) staining, pMO2 0.5 or 0.25 mg/ml (0.2 and 0.1 mM), FIG. 11; for protective (anti-apoptotic) effect in vitro: DiOC6(3), 7AAD and cell size, FIGS. 11-13
Experimental: The changes in the mitochondria membrane potential can be measured with 3,3′-Dihexyloxacarbocyanine iodide (Dioc6(3)). The binding to the mitochondria membrane is relative to its potential, the highest binding occurs in live and intact cells; the lowest in dead cells. The binding is monitored by flow cytometry (FL1 channel).
After overnight culture (see below), cells are washed in PBS and are treated with 40 nM DiOC6(3) for 15 min at 37° C. Cells are then washed in PBS, stained for lymphocytes surface markers such as CD3/CD4/CD8, with the appropriate antibodies, for 30 min at 4° C., washed again in PBS, resuspended in 0.5 ml PBS and analyzed using the FACS (flow cytometry).
7AAD is a nucleic acid dye that binds to […] DNA, selectively to GC regions of DNA. No binding is observed in live cells. The binding to apoptotic cells is proportional to the degree of apoptosis and membrane damage. The 7AAD fluorescence is detected in the far-red range of the spectrum (650 nm), in the FL3 channel.
After overnight culture (see below), cells are washed with PBS and are stained with monoclonal antibodies (CD3/4/8) for 30 min at 4° C., then washed again in PBS. Cells are then incubated with 7AAD (20 μg/ml) for 20 min at 4° C. in the dark and directly analyzed using the FACS (flow cytometry).
As a result of the process of apoptosis, cells undergo a cytoplasm shrinkage, which can be detected as a decrease in cell size as observed by the forward scatter position of the cells analyzed by FACS; the smaller lymphocytes are apoptotic, the larger are intact.
Mononuclear cells, freshly obtained from peripheral blood on a Ficoll-Hypaque gradient are washed in PBS and resuspended in RPMI supplemented with 10% fetal calf serum, glutamine, antibiotics, non-essential amino acids and sodium pyruvate, at a concentration of 4×10^6 cells per ml. Cells (0.5 ml per well) are incubated overnight, in 24 well plates, in the presence of Gliotoxin (0.1 μg/ml) or PMA (1 μg/ml) and with pMO2 or pSCR peptides (0.2, 0.1, 0.05 mM equivalent to 0.5, 0.25 and 0.125 mg/ml); as a control DMSO—the diluent of the peptides—was used at the appropriate dilution or with recombinant human CD14 (10 and 5 μg/ml). For the experiments aimed at neutralizing the human rCD14, monoclonal antibodies against CD14 or against actin (as a control) are added, together with the CD14, at a final concentration of 15 μg/ml.
After the overnight incubation, cells are processed for apoptosis assessment using the methods described above.
The effect of recombinant human CD14 on the induction of apoptosis in human lymphocytes and in human CD3 positive lymphocytes was tested in vitro. Human mononuclear cells obtained from healthy individuals were incubated with apoptosis inducers, gliotoxin or PMA. […] Namely, recombinant human CD14 protects lymphocytes from gliotoxin-induced apoptosis. […] Two parameters were measured: cell size (A), and mitochondrial membrane potential determined by Dioc6 (3) binding (B). In (A) there is a shift to the left (characteristic to apoptotic cells) under gliotoxin treatment compared to “medium”, and a reversal to normal size in the presence of rhCD14. In (B) low binding of Dioc6 (3) in the presence of gliotoxin (characteristic to apoptotic cells) can be observed, and the effect is reversed by rhCD14.
In addition, in order to investigate the spectrum of effective concentrations of rhCD14, mononuclear cells were cultured overnight in the presence of gliotoxin and varying concentrations of rhCD14, ranging from 10 to 0.6 μg/ml. Apoptosis of CD3+ cells was measured with Dioc6(3). As expected, cells cultured without gliotoxin included a very low number of apoptotic cells, about 0.3% of the cultured cells.
As explained above, the epitopes recognized by this monoclonal MO2 antibody were mapped using a random peptide library, and one of the specific peptides (amino acids 139-160 of CD14; pMO2) was synthesized. […]

[4] = 0.2 mM peptide, gliotoxin, FIGS. 14, 15

## C[C@H]1CCC/C=C/[C@@H]2C[C@H](O)C[C@H]2[C@H](O)/C=C/C(=O)O1 [Brefeldin A]
[1]
  change of intracellular expression of MO2 in lymphocytes: substantial decrease

## ATGLALSSLRLRNVSWATGRSW [pMO2]
[2]; 3 hours incubation with pMO2-biotin, visualized only upon fixation and permeabilization, FIG. 16
  penetration into lymphocytes: penetrates lymphocytes
[2]; CD3 positive and CD3 negative cells in vitro, FIG. 17
  time of incubation for penetration into the majority of the lymphocytes: ≤ 10 min
[3]; 0.05 mM peptide, gliotoxin vs gliotoxin and control diluent, FIG. 14
  percent protection from apoptosis: about 45%
[3]; 0.1 mM peptide, gliotoxin, FIG. 14
  efficiency in protecting cells from apoptosis: very high efficiency
[3]; [4]
  efficiency in protecting cells from apoptosis: very high efficiency
[3]
  protection of lymphocytes from gliotoxin-induced apoptosis: equally protect
[3]; gliotoxin
  protective (anti-apoptotic) effect in vitro: retain the anti-apoptotic effect of the whole recombinant human CD14

## ALGTSLARLSNRLWSVGTAWSR (listed as Homo sapiens) [pSCR, scrambled control peptide based on the same amino acids as pMO2, reference compound]
[3]; [4]
  efficiency in protecting cells from apoptosis: no protection
[3]
  protection of lymphocytes from gliotoxin-induced apoptosis: not
[3]; gliotoxin
  protective (anti-apoptotic) effect in vitro: did not show any protective effect

B1: rhCD14: recombinant human soluble CD14 polypeptide, not anchored to the cell membrane (SEQ ID NO: 5) (protein, listed as Homo sapiens)
chain: MERASCLLLLLLPLVHVSATTPEPCELDDEDFRCVCNFSEPQPDWSEAFQCVSAVEVEIHAGGLNLEPFLKRVDADADPRQYADTVKALRVRRLTVGAAQVPAQLLVGALRVLAYSRLKELTLEDLKITGTMPPLPLEATGLALSSLRLRNVSWATGRSWLAELQQWLKPGLKVLSIAQAHSPAFSCEQVRAFPALTSLDLSDNPGLGERGLMAALCPHKFPAIQNLALRNTGMETPTGVCAALAAAGVQPHSLDLSHNSLRATVNPSAPRCMWSSALNSLNLSFAGLEQVPKGLPAKLRVLDLSCNRLNRAPQPDELPEVDNLTLDGNPFLVPGTALPHEGSMNSGVVPACARSTLSVGVSGTLVLLQGARGFA
[3]
  protection of lymphocytes from gliotoxin-induced apoptosis: equally protect
[3]; apoptosis inducers gliotoxin or PMA, added during the incubation
  effect on induced apoptosis of lymphocytes and of CD3 positive lymphocytes: blocked significantly
[3]; gliotoxin, overnight, rhCD14 titrated 10 to 0.6 μg/ml, CD3+ cells, Dioc6(3), FIG. 6
  concentration at which inhibition of apoptosis is already effective: 1.25 µg/mL
